Test results published in US10011573B2, “Human androgen receptor DNA-binding domain (DBD) compounds as therapeutics and methods for their use” (The University of British Columbia, priority 2014, dated 2018).
Like-named read-outs stand apart in the source and are kept apart here.

Assays:
[1] = tested on: PSA; test: Prostate-specific antigen (PSA) assay, secreted PSA from the eGFP assay plates; assay type: cell-based, human
Description: 3. Prostate-specific antigen (PSA) assay: The evaluation of PSA levels secreted into the media was performed in parallel to the eGFP assay using the same plates. After cells were incubated for 3 days, 150 μl of the media was taken from each well, and added to 150 μl of PBS.

[2] = target: T1, androgen receptor (AR) (Homo sapiens, UniProt P10275, T878A); test: eGFP cellular AR transcription assay (LNCaP eGFP cells, LN-ARR2PB-eGFP); conditions: for inhibition at 3 µM: LNCaP, read-out: % Inhibition (3 μM)
T1 sequence (P10275 1-920 T878A): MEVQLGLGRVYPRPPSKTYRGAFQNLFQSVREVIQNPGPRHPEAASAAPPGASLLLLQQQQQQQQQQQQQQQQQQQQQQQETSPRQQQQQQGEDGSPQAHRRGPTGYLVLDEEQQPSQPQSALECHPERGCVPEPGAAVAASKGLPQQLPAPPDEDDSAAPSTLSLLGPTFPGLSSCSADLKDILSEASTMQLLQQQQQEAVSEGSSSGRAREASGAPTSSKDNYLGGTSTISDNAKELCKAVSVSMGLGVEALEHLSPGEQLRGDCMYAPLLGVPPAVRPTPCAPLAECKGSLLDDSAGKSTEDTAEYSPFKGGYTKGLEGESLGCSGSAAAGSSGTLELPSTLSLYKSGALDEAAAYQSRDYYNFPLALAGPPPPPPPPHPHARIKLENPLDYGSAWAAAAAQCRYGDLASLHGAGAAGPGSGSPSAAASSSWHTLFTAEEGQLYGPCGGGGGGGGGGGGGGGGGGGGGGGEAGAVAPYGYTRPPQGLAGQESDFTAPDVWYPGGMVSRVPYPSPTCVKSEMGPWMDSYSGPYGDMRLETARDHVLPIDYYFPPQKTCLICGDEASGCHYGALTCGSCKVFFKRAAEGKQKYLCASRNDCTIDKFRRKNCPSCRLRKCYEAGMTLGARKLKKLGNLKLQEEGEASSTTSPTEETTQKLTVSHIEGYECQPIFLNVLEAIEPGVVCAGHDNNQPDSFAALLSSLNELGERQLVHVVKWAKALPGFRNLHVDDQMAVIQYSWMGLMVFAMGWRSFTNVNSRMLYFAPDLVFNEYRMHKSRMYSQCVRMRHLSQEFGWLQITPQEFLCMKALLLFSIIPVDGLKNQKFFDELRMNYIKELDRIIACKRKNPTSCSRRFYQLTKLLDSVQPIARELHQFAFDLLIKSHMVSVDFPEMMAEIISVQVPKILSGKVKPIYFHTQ

[3] = eGFP IC50 (μM), LNCaP eGFP cells

| SMILES | IC50 ([1]; Homo sapiens, secreted PSA) [µM] | IC50 [2, 3] [µM] | inhibition at 3 µM [2] [%] | IC50 ([1]; Homo sapiens, Series 1) [µM] | IC50 ([2]; eGFP IC50 (μM), Series 1) [µM] | also measured |
| --- | --- | --- | --- | --- | --- | --- |
| CCOC(=O)c1c(C)[nH]c(C(=O)N[C@@H]2CCCc3ccccc32)c1C [Compound 14002] | 3.54 | 11.8 | – | – | – | – |
| Clc1ccc(-c2csc(N3CCOCC3)n2)c(Cl)c1 [Compound 14263] | – | – | – | – | – | IC50 ([1]; Series 1): 1.32 µM; IC50 ([2]; read-out: eGFP IC50): 1.66 µM |
| Nc1nc(-c2ccc3ccccc3c2)cs1 [Compound 14204] | 10.6 | 9.16 | 67.2 | – | – | – |
| COc1cc(F)ccc1-c1csc(N2CCOCC2)n1 [Compound 14367] | – | – | 103 | 0.23 | 0.3 | – |
| c1ccc(-c2csc(-c3ccncc3)n2)cc1 [Compound 14352] | – | – | – | – | – | IC50 ([1]; Series 1): 0.63 µM; IC50 ([2]; read-out: eGFP IC50): 1.19 µM |
| Ic1ncn(-c2csc(N3CCOCC3)n2)c1I [Compound 14464, 4-(4-(4,5-diiodo-1H-imidazol-1-yl)thiazol-2-yl)morpholine] | – | – | – | 1.81 | 1.5 | – |
| O=C(O)c1sc(N2CCOCC2)nc1-c1ccccc1 [Compound 14506] | – | – | – | – | – | IC50 ([1]; Series 1): 4.5 µM; IC50 ([2]; read-out: eGFP IC50): 7 µM |
| Oc1c(-c2csc(N3CCOCC3)n2)ccc(F)c1F [Compound 14371] | – | – | 98.9 | 0.7 | 0.8 | – |
| Fc1ccc(F)c(-c2csc(N3CCOCC3)n2)c1 [Compound 14262] | – | – | – | – | – | IC50 ([1]; Series 1): 10.5 µM; % Inhibition (3 μM) [2]: 96.6% |
| Cc1scc(-c2csc(N3CCOCC3)n2)c1C [Compound 14408, 4-(4-(4,5-dimethylthiophen-3-yl)thiazol-2-yl)morpholine] | – | – | – | 0.43 | 0.42 | – |
| Cc1ncn(-c2csc(N3CCOCC3)n2)c1C [Compound 14399] | – | – | – | – | – | IC50 ([1]; Series 1): 2.42 µM; IC50 ([2]; read-out: eGFP IC50): 3.65 µM |
| CCc1sc(N2CCOCC2)nc1-c1ccccc1 [Compound 14285] | – | – | – | – | – | IC50 ([1]; Series 1): 8.43 µM; % Inhibition (3 μM) [2]: 52.34%; IC50 ([2]; read-out: eGFP IC50): 5.85 µM |
| Clc1ncn(-c2csc(N3CCOCC3)n2)c1Cl [Compound 14402, 4-(4-(4,5-dichloro-1H-imidazol-1-yl)thiazol-2-yl)morpholine] | – | – | – | 0.57 | 0.66 | – |
| Oc1cc(F)ccc1-c1csc(N2CCOCC2)n1 [Compound 14364] | – | – | – | – | – | IC50 ([1]; Series 1): 0.81 µM; % Inhibition (3 μM) [2]: 91.26%; IC50 ([2]; read-out: eGFP IC50): 1.22 µM |

The next lines start with results.

| IC50 ([1]; Homo sapiens, secreted PSA) [µM] | IC50 [2, 3] [µM] | inhibition at 3 µM [2] [%] | IC50 ([1]; Homo sapiens, Series 1) [µM] | IC50 ([2]; eGFP IC50 (μM), Series 1) [µM] | SMILES | also measured |
| --- | --- | --- | --- | --- | --- | --- |
| – | – | 64 | 7.8 | 6.89 | Cc1[nH]c2ccccc2c1-c1csc(N2CCOCC2)n1 [Compound 14135] | – |
| 3.91 | 3.17 | 91.5 | – | – | CNc1nc(-c2ccc3ccccc3c2)cs1 [Compound 14203] | – |
| 19.3 | 32.5 | – | – | – | CC(=O)Nc1cccc(NC(=O)c2ccc(C)c(-n3cccc3)c2)c1 [Compound 14010] | – |
| 0.5 | 0.75 | – | – | – | Oc1cccc(N2Cc3ccccc3C2)c1 [Compound 14309] | – |
| 0.69 | 0.85 | 76 | – | – | c1ccc2nc(N3CCOCC3)ccc2c1 [Compound 14401] | – |
| 0.17 | 0.11 | – | – | – | Brc1ccc2nc(N3CCOCC3)ccc2c1 [Compound 14452] | – |
| 2.26 | 4.2 | 62 | – | – | c1ccc2nc(-c3ccncc3)ccc2c1 [Compound 14320] | – |
| 0.64 | 1.3 | – | – | – | c1ccc2cc(-c3cscn3)ccc2c1 [Compound 14193] | – |
| – | – | 97.4 | 0.16 | 0.27 | Oc1c(F)cccc1-c1csc(N2CCOCC2)n1 [Compound 14365] | – |
| – | – | – | 0.58 | 0.61 | FC(F)(F)c1cccc(-c2csc(N3CCOCC3)n2)c1 [Compound 14292] | – |
| – | – | 100 | 0.511 | 0.522 | c1ccc(-c2ccc(N3CCOCC3)s2)cc1 [Compound 14103] | – |
| 1.04 | 0.23 | – | – | – | Oc1cccc(-c2ccc3ccccc3n2)c1 [Compound 14300] | – |
| 0.38 | 0.46 | 79 | – | – | Oc1cccc2ccc(N3CCOCC3)nc12 [Compound 14400] | – |
| 0.54 | 0.54 | 103 | – | – | N#Cc1cc(N2CCOCC2)nc2ccccc12 [Compound 14395] | – |
| – | – | 83.3 | 0.632 | 1.19 | Fc1ccc(-c2csc(-c3ccncc3)n2)cc1 [Compound 14315] | – |
| 1.06 | 1.79 | 82.5 | – | – | N#Cc1ccc(-c2nc3ccccc3s2)cc1 [Compound 14489] | – |
| 8.08 | 7.41 | 57.5 | – | – | Oc1ccc2nc(N3CCOCC3)sc2c1 [Compound 14378] | – |
